Measured values published in ChEMBL document CHEMBL1201862, “PubChem BioAssay data set” (2004).
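Step 1: Grow cells in 96-well plates. Step 2: Expose to compound for 48 hours at 5 concentrations. Step 3: Interpolate endpoints linearly; if unreached, use highest concentration. GI50 = concentration required for 50% inhibition of growth.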 Calls of active or inactive are those of the source. No stated cut-off is given here; in the data, active = GI50 up to about 1.1 µM and inactive = higher.

How the values were obtained:
Assay in all cases: NCI-60 cell line screen, 48 h
786-0 = test system: 786-0
A498 = test system: A498
A549 = test system: A549
ACHN = test system: ACHN
BT-549 = test system: BT-549
CAKI-1 = test system: CAKI-1
CCRF-CEM = test system: CCRF-CEM
COLO 205 = test system: COLO 205
DU-145 = test system: DU-145
EKVX = test system: EKVX
HCC 2998 = test system: HCC 2998
HCT-116 = test system: HCT-116
HCT-15 = test system: HCT-15
HL-60 = test system: HL-60
HOP-62 = test system: HOP-62
HOP-92 = test system: HOP-92
HT-29 = test system: HT-29
Hs-578T = test system: Hs-578T
IGROV-1 = test system: IGROV-1
K562 = test system: K562
KM12 = test system: KM12
LOX IMVI = test system: LOX IMVI
M14 = test system: M14
MCF7 = test system: MCF7
MDA-MB-231 = test system: MDA-MB-231
MDA-MB-435 = test system: MDA-MB-435
MDA-N = test system: MDA-N
MOLT-4 = test system: MOLT-4
Malme-3M = test system: Malme-3M
NCI-H226 = test system: NCI-H226
NCI-H23 = test system: NCI-H23
NCI-H460 = test system: NCI-H460
NCI-H522 = test system: NCI-H522
NCI/ADR-RES = test system: NCI/ADR-RES
OVCAR-3 = test system: OVCAR-3
OVCAR-4 = test system: OVCAR-4
OVCAR-5 = test system: OVCAR-5
OVCAR-8 = test system: OVCAR-8
PC-3 = test system: PC-3
RPMI-8226 = test system: RPMI-8226
RXF 393 = test system: RXF 393
SF-268 = test system: SF-268
SF-295 = test system: SF-295
SF-539 = test system: SF-539
SK-MEL-28 = test system: SK-MEL-28
SK-MEL-2 = test system: SK-MEL-2
SK-MEL-5 = test system: SK-MEL-5
SK-OV-3 = test system: SK-OV-3
SN12C = test system: SN12C
SNB-19 = test system: SNB-19
SNB-75 = test system: SNB-75
SR = test system: SR
SW-620 = test system: SW-620
T47D = test system: T47D
TK-10 = test system: TK-10
UACC-257 = test system: UACC-257
UACC-62 = test system: UACC-62
UO-31 = test system: UO-31
U-251 = test system: U-251

CCOc1cc(NC(C)=O)ccc1C(=O)NN1C(=O)C(Cl)C1c1ccco1 (stereo unspecified)
GI50 (786-0): 16.1 µM (inactive) | GI50 (A498): 16.4 µM (inactive) | GI50 (A549): 18.7 µM (inactive) | GI50 (ACHN): 15.7 µM (inactive) | GI50 (BT-549): 13.5 µM (inactive) | GI50 (CAKI-1): 17.1 µM (inactive) | GI50 (CCRF-CEM): 4.58 µM (inactive) | GI50 (COLO 205): 17.2 µM (inactive) | GI50 (DU-145): 17.3 µM (inactive) | GI50 (EKVX): 17.9 µM (inactive) | GI50 (HCC 2998): 16 µM (inactive) | GI50 (HCT-116): 20.7 µM (inactive) | GI50 (HCT-15): 19.1 µM | GI50 (HL-60): 18.4 µM (inactive) | GI50 (HOP-62): 17.9 µM (inactive) | GI50 (HOP-92): 19.1 µM (inactive) | GI50 (HT-29): 19.1 µM (inactive) | GI50 (Hs-578T): 21.8 µM (inactive) | GI50 (IGROV-1): 13.1 µM (inactive) | GI50 (K562): 19.3 µM (inactive) | GI50 (KM12): 18.5 µM (inactive) | GI50 (LOX IMVI): 3.99 µM (inactive) | GI50 (M14): 15.4 µM (inactive) | GI50 (MCF7): 13.4 µM (inactive) | GI50 (MDA-MB-231): 16.6 µM (inactive) | GI50 (MDA-MB-435): 15 µM (inactive) | GI50 (MDA-N): 14.4 µM (inactive) | GI50 (MOLT-4): 7.01 µM (inactive) | GI50 (Malme-3M): 11.7 µM (inactive) | GI50 (NCI-H226): 18.5 µM (inactive) | GI50 (NCI-H23): 16.6 µM (inactive) | GI50 (NCI-H460): 17.3 µM (inactive) | GI50 (NCI-H522): 10.6 µM (inactive) | GI50 (NCI/ADR-RES): 33.7 µM (inactive) | GI50 (OVCAR-3): 16.9 µM (inactive) | GI50 (OVCAR-4): 14.9 µM (inactive) | GI50 (OVCAR-5): 20.6 µM (inactive) | GI50 (OVCAR-8): 43.5 µM (inactive) | GI50 (PC-3): 17.9 µM (inactive) | GI50 (RPMI-8226): 18.3 µM (inactive) | GI50 (RXF 393): 12.3 µM (inactive) | GI50 (SF-268): 16.1 µM (inactive) | GI50 (SF-295): 16 µM (inactive) | GI50 (SF-539): 14.9 µM (inactive) | GI50 (SK-MEL-28): 22.6 µM (inactive) | GI50 (SK-MEL-2): 18.6 µM (inactive) | GI50 (SK-MEL-5): 13.3 µM (inactive) | GI50 (SK-OV-3): 18.3 µM (inactive) | GI50 (SN12C): 14.5 µM (inactive) | GI50 (SNB-19): 17 µM (inactive) | GI50 (SNB-75): 13.8 µM (inactive) | GI50 (SR): 13.9 µM (inactive) | GI50 (SW-620): 32.3 µM (inactive) | GI50 (T47D): 16.7 µM (inactive) | GI50 (TK-10): 17.4 µM (inactive) | GI50 (UACC-257): 15.7 µM (inactive) | GI50 (UACC-62): 12.6 µM (inactive) | GI50 (UO-31): 2.86 µM (inactive)

O=C1/C(=C\c2ccc([N+](=O)[O-])cc2)CS(=O)(=O)C/C1=C/c1ccc([N+](=O)[O-])cc1
GI50 (786-0): 0.149 µM (active) | GI50 (A498): 1.79 µM (inactive) | GI50 (A549): 1.85 µM (inactive) | GI50 (ACHN): 0.705 µM (active) | GI50 (BT-549): 0.316 µM (active) | GI50 (CAKI-1): 1.4 µM (inactive) | GI50 (CCRF-CEM): 0.264 µM (active) | GI50 (COLO 205): 0.188 µM (active) | GI50 (DU-145): 2.92 µM (inactive) | GI50 (EKVX): 1.21 µM (inactive) | GI50 (HCC 2998): 0.247 µM (active) | GI50 (HCT-116): 0.288 µM (active) | GI50 (HCT-15): 0.117 µM | GI50 (HL-60): 0.324 µM (active) | GI50 (HOP-62): 1.23 µM (inactive) | GI50 (HOP-92): 1.91 µM (inactive) | GI50 (HT-29): 0.357 µM (active) | GI50 (Hs-578T): 1.35 µM (inactive) | GI50 (IGROV-1): 0.641 µM (active) | GI50 (KM12): 0.327 µM (active) | GI50 (LOX IMVI): 0.597 µM (active) | GI50 (M14): 0.74 µM (active) | GI50 (MCF7): 0.303 µM (active) | GI50 (MDA-MB-231): 0.193 µM (active) | GI50 (MDA-MB-435): 0.358 µM (active) | GI50 (MDA-N): 0.35 µM (active) | GI50 (Malme-3M): 0.41 µM (active) | GI50 (NCI-H226): 2.83 µM (inactive) | GI50 (NCI-H23): 0.904 µM (active) | GI50 (NCI-H460): 0.515 µM (active) | GI50 (NCI-H522): 0.277 µM (active) | GI50 (NCI/ADR-RES): 0.161 µM (active) | GI50 (OVCAR-3): 0.141 µM (active) | GI50 (OVCAR-4): 0.342 µM (active) | GI50 (OVCAR-5): 1.36 µM (inactive) | GI50 (OVCAR-8): 0.107 µM (active) | GI50 (PC-3): 0.392 µM (active) | GI50 (RPMI-8226): 0.0942 µM (active) | GI50 (RXF 393): 0.482 µM (active) | GI50 (SF-268): 0.773 µM (active) | GI50 (SF-295): 1.74 µM (inactive) | GI50 (SF-539): 0.189 µM (active) | GI50 (SK-MEL-28): 1.13 µM (inactive) | GI50 (SK-MEL-2): 1.17 µM (inactive) | GI50 (SK-MEL-5): 1.4 µM (inactive) | GI50 (SK-OV-3): 4.8 µM (inactive) | GI50 (SNB-19): 3.24 µM (inactive) | GI50 (SNB-75): 15.5 µM (inactive) | GI50 (SR): 0.03 µM (active) | GI50 (SW-620): 0.262 µM (active) | GI50 (T47D): 0.962 µM (active) | GI50 (TK-10): 0.787 µM (active) | GI50 (U-251): 0.298 µM (active) | GI50 (UACC-257): 1.81 µM (inactive) | GI50 (UACC-62): 0.198 µM (active) | GI50 (UO-31): 0.176 µM (active)

CCOP(=O)(OCC)/C(C#N)=C/c1c[nH]c2ccccc12
GI50 (786-0): > 100 µM (inactive) | GI50 (A498): > 100 µM (inactive) | GI50 (A549): > 100 µM (inactive) | GI50 (ACHN): > 100 µM (inactive) | GI50 (BT-549): 57.9 µM (inactive) | GI50 (CAKI-1): > 100 µM (inactive) | GI50 (COLO 205): > 100 µM (inactive) | GI50 (DU-145): > 100 µM (inactive) | GI50 (EKVX): > 100 µM (inactive) | GI50 (HCC 2998): > 100 µM (inactive) | GI50 (HCT-116): > 100 µM (inactive) | GI50 (HCT-15): > 100 µM | GI50 (HL-60): > 100 µM (inactive) | GI50 (HOP-62): > 100 µM (inactive) | GI50 (HOP-92): > 100 µM (inactive) | GI50 (HT-29): > 100 µM (inactive) | GI50 (Hs-578T): > 100 µM (inactive) | GI50 (IGROV-1): > 100 µM (inactive) | GI50 (K562): > 100 µM (inactive) | GI50 (KM12): > 100 µM (inactive) | GI50 (LOX IMVI): > 100 µM (inactive) | GI50 (M14): > 100 µM (inactive) | GI50 (MCF7): > 100 µM (inactive) | GI50 (MDA-MB-231): > 100 µM (inactive) | GI50 (MDA-MB-435): > 100 µM (inactive) | GI50 (MDA-N): > 100 µM (inactive) | GI50 (Malme-3M): > 100 µM (inactive) | GI50 (NCI-H226): > 100 µM (inactive) | GI50 (NCI-H23): > 100 µM (inactive) | GI50 (NCI-H460): > 100 µM (inactive) | GI50 (NCI-H522): > 100 µM (inactive) | GI50 (NCI/ADR-RES): 53 µM (inactive) | GI50 (OVCAR-3): 62.8 µM (inactive) | GI50 (OVCAR-4): > 100 µM (inactive) | GI50 (OVCAR-5): > 100 µM (inactive) | GI50 (OVCAR-8): > 100 µM (inactive) | GI50 (PC-3): > 100 µM (inactive) | GI50 (RPMI-8226): 90.4 µM (inactive) | GI50 (RXF 393): > 100 µM (inactive) | GI50 (SF-268): > 100 µM (inactive) | GI50 (SF-295): > 100 µM (inactive) | GI50 (SF-539): > 100 µM (inactive) | GI50 (SK-MEL-28): > 100 µM (inactive) | GI50 (SK-MEL-2): > 100 µM (inactive) | GI50 (SK-MEL-5): > 100 µM (inactive) | GI50 (SK-OV-3): > 100 µM (inactive) | GI50 (SN12C): > 100 µM (inactive) | GI50 (SNB-19): > 100 µM (inactive) | GI50 (SNB-75): > 100 µM (inactive) | GI50 (SR): > 100 µM (inactive) | GI50 (SW-620): > 100 µM (inactive) | GI50 (T47D): > 100 µM (inactive) | GI50 (TK-10): > 100 µM (inactive) | GI50 (U-251): > 100 µM (inactive) | GI50 (UACC-257): > 100 µM (inactive) | GI50 (UACC-62): > 100 µM (inactive) | GI50 (UO-31): 45.8 µM (inactive)
